Reference: patent publication US20240016775A1, “ANTI-CORONAVIRUS APPLICATION OF POLY ADP RIBOSE POLYMERASE INHIBITOR” (FUKANG (SHANGHAI) HEALTH TECHNOLOGY CO., LTD, priority 2020, published 2024)
Where “and” joins values, the source holds several entries; their conditions need not be identical. Identical values can stand only once. Like-named read-outs stand apart in the source and are kept apart here.

Legend:
SARS-CoV-2 [1] = assay: microbe, parasite or virus in culture; assay type: cell-based; conditions: for inhibition at 3 µM: Severe acute respiratory syndrome coronavirus 2, Vero C1008, 48 h, read-out: Inhibiting rate, %, 3 μM
[2] = Safety study in cynomolgus monkeys (body weight); assay type: in vivo; conditions: 5/20/80 mg/kg, 28 days, then 28 days off
Description: Healthy male and female monkeys, aged 3-4 years, were purchased from Landao Biotechnology, Guangdong, China. Animals were fed in accordance with the Guide for Care and Use of Laboratory Animals. The animals were randomized (5 animals/gender/group), and were fed with CVL218 via nasogastric at dose levels of 0 (control), 5, 20 and 80 mg/kg. Monkeys were observed twice daily for any changes in viability/mortality and behavior, response to treatment or health status.

[3] = Body weight of rats, 28 days oral administration and 28 days without; assay type: in vivo, Sprague-Dawley rats; conditions: oral 20/60/160 mg/kg, then 28 days off
Description: (§1) Sprague-Dawley rats were purchased from Animal Experiment Center of Shanghai, China. The experimental animals were housed in groups in wire cages, with no more than 6 animals per cage. The experimental conditions were good (temperature 25±2° C.; relative humidity 50±20%) and light-dark cycle (12 hours/12 hours). 144 Sprague-Dawley rats were randomized into 4 groups (18 animals/gender/group). CVL218 was administered at doses of 20, 40, 60 and 160 mg/kg. For all groups, 20 rats (10 animals/gender/group) were randomly selected, euthanized on day 28, and sections of various tissues and organs were obtained and frozen. Ten (5/gender/group) animals were euthanized after a 28-day drug-free period, and sections of their tissues and organs were taken and frozen. Six animals (3/gender/group) were euthanized after blood samples were collected. For pharmacokinetics and safety evaluations, the blood concentrations, clinical symptoms, mortality and body weight of animals were examined.

SARS-CoV-2 [4] = test system: SARS-CoV-2
IL-6 production in PBMCs = assay type: cell-based; conditions: 12 hours
[5] = Tissue distribution study of CVL218 in rats (LC-MS-MS); assay type: in vivo, Sprague-Dawley rats; conditions: for Tissue concentration, Brain / Tissue concentration, Heart / Tissue concentration, Kidney / Tissue concentration, Liver / Tissue concentration, Lung / Tissue concentration, Spleen / Tissue concentration, Stomach: oral 20 mg/kg
Description: Sprague-Dawley rats were randomized into 3 time-point groups (3 animals/gender/group). At 3, 6 and 8 hours after CVL218 administration, animals were sacrificed, and the brain, heart, lung, liver, spleen, stomach and kidney tissues were collected. The tissue samples were washed with ice-cold physiological saline and weighed after excess liquid was removed with paper towels. After tissue sample solutions were weighed, they were stored at −20±2° C. until the drug concentration was determined by LC-MS-MS.

SARS-CoV-2 [6] = assay: Time-of-addition assay (duration of action) in Vero E6 cells; assay type: cell-based; conditions: CVL218 20 μM, remdesivir 10 μM, 14 h after infection
[7] = Pharmacokinetic study of CVL218 in rats; assay type: in vivo, Sprague-Dawley rats
Description: as §1

Which inhibition at 3 µM (SARS-CoV-2 [1]; Vero-E6, MOI 0.05, 48 h) does the source give for `CCOC(=O)C1=C[C@@H](OC(CC)CC)[C@H](NC(C)=O)[C@@H](N)C1` [Oseltamivir] here?
Its inhibition at 3 µM is -13.5%.

For `CNCc1ccc(-c2cc3cc(F)cc(C(N)=O)c3o2)cc1.Cl` [CVL218, mefuparib hydrochloride], which “Body weight versus control group” value [2] is on record?
Its value is “no significant difference in body weight”.

And the “Body weight versus control group” value [3]?
Its value is “no significant difference in body weight”.

And the “Cytopathic effect in infected cells” value (SARS-CoV-2 [4]; 25 μM)?
Its value is “No apparent cytopathic effect”.

What about the “Expression of the viral nucleoprotein (NP)” value (SARS-CoV-2 [4]; 5, 15, 25 μM, 14 h after infection, versus DMSO treated cells) of the same compound?
The value was “significantly lower”.

What about the “Reduction of CpG-induced IL-6 production” value (IL-6 production in PBMCs; 1 μM) of the same compound?
The value was 50%.

What about the “Reduction of CpG-induced IL-6 production” value (IL-6 production in PBMCs; 3 μM) of the same compound?
Its value is 72.65%.

What about the “Tissue/serum drug concentration ratio, Brain” value [5] of the same compound?
Its value is 9.728 ± 1.130.

What about the “Tissue/serum drug concentration ratio, Heart” value [5] of the same compound?
The value was 16.514 ± 1.348.

And the “Tissue/serum drug concentration ratio, Kidney” value [5]?
The value was 41.307 ± 5.391.

What about the “Tissue/serum drug concentration ratio, Liver” value [5] of the same compound?
Its value is 46.780 ± 5.215.

What about the “Tissue/serum drug concentration ratio, Spleen” value [5] of the same compound?
Its value is 54.897 ± 6.250.

And the “Tissue/serum drug concentration ratio, Stomach” value [5]?
The value was 22.133 ± 7.130.

And the “Tissue/serum drug concentration ratio, Lung” value ([5]; hydrochloride)?
The value was 188 and 188.364 ± 28.467.

What about the “Tissue concentration, Brain” value ([5]; 180 min) of the same compound?
Its value is 3580 ± 416.

And the “Tissue concentration, Heart” value ([5]; 180 min)?
Its value is 6077 ± 496.

And the “Tissue concentration, Kidney” value ([5]; 180 min)?
The value was 15201 ± 1984.

And the “Tissue concentration, Liver” value ([5]; 180 min)?
The value was 17215 ± 1919.

What about the “Tissue concentration, Lung” value ([5]; 180 min) of the same compound?
The value was 69318 ± 10476.

And the “Tissue concentration, Spleen” value ([5]; 180 min)?
The value was 20202 ± 2300.

And the “Tissue concentration, Stomach” value ([5]; 180 min)?
Its value is 8145 ± 2624.

What about the “Tissue concentration, Brain” value ([5]; 360 min) of the same compound?
Its value is 998 ± 220.

What about the “Tissue concentration, Heart” value ([5]; 360 min) of the same compound?
Its value is 1390 ± 292.

What about the “Tissue concentration, Kidney” value ([5]; 360 min) of the same compound?
Its value is 3903 ± 594.

And the “Tissue concentration, Liver” value ([5]; 360 min)?
The value was 2187 ± 859.

And the “Tissue concentration, Lung” value ([5]; 360 min)?
The value was 18858 ± 2365.

What about the “Tissue concentration, Spleen” value ([5]; 360 min) of the same compound?
Its value is 6358 ± 1058.

What about the “Tissue concentration, Stomach” value ([5]; 360 min) of the same compound?
Its value is 1871 ± 813.

What about the “Tissue concentration, Brain” value ([5]; 480 min) of the same compound?
Its value is 317 ± 55.

And the “Tissue concentration, Heart” value ([5]; 480 min)?
The value was 275 ± 80.

What about the “Tissue concentration, Kidney” value ([5]; 480 min) of the same compound?
The value was 993 ± 327.

What about the “Tissue concentration, Liver” value ([5]; 480 min) of the same compound?
Its value is 213 ± 88.

And the “Tissue concentration, Lung” value ([5]; 480 min)?
Its value is 4183 ± 847.

What about the “Tissue concentration, Spleen” value ([5]; 480 min) of the same compound?
The value was 1475 ± 324.

What about the “Tissue concentration, Stomach” value ([5]; 480 min) of the same compound?
The value was 569 ± 293.

What about the “Inhibiting rate, %” value (SARS-CoV-2 [1]; 3 μM, Vero-E6, MOI 0.05, 48 h, hydrochloride) of the same compound?
The value was 35% and 35.16%.

What about the EC50 (SARS-CoV-2 [1]; different batches, hydrochloride, read-out: EC50 against SARS-CoV-2) of the same compound?
The EC50 was 7.67 µM and 5.12 µM.

What about the “Antiviral activity, after the virus enters” value (SARS-CoV-2 [6]) of the same compound?
The value was “significantly inhibit the replication after viral entry”.

And the “Antiviral activity, when the virus enters” value (SARS-CoV-2 [6])?
Its value is “partially antagonize viral entry”.

And the “Antiviral activity, whole process treatment” value (SARS-CoV-2 [6]; versus DMSO)?
Its value is “stronger antiviral activity”.

And the AUC0-t ([7]; oral 20 mg/kg, Female)?
Its AUC0-t is 2196 ± 228 ngh/mL.

And the “AUC0-∞” value ([7]; oral 20 mg/kg, Female)?
Its value is 2222 ± 241 ngh/mL.

What about the Cmax ([7]; oral 20 mg/kg, Female) of the same compound?
The Cmax was 502 ± 80 ng/mL.

And the “MRT0-∞” value ([7]; oral 20 mg/kg, Female)?
Its value is 3.16 h.

And the Tmax ([7]; oral 20 mg/kg, Female)?
The Tmax was 3.0 h.

And the t1/2 ([7]; oral 20 mg/kg, Female)?
Its t1/2 is 1.1 ± 0.16 h.

What about the AUC0-t ([7]; oral 20 mg/kg, Male) of the same compound?
Its AUC0-t is 1070 ± 176 ngh/mL.

What about the “AUC0-∞” value ([7]; oral 20 mg/kg, Male) of the same compound?
Its value is 1111 ± 192 ngh/mL.

What about the Cmax ([7]; oral 20 mg/kg, Male) of the same compound?
The Cmax was 234 ± 35 ng/mL.

And the “MRT0-∞” value ([7]; oral 20 mg/kg, Male)?
The value was 3.91 h.

What about the Tmax ([7]; oral 20 mg/kg, Male) of the same compound?
Its Tmax is 4.0 h.

And the t1/2 ([7]; oral 20 mg/kg, Male)?
Its t1/2 is 1.19 ± 0.09 h.

What about the AUC0-t ([7]; oral 20 mg/kg, Total) of the same compound?
Its AUC0-t is 1633 ± 643 ngh/mL.

What about the “AUC0-∞” value ([7]; oral 20 mg/kg, Total) of the same compound?
The value was 1666 ± 639 ngh/mL.

And the Cmax ([7]; oral 20 mg/kg, Total)?
Its Cmax is 368 ± 157 ng/mL.

What about the “MRT0-∞” value ([7]; oral 20 mg/kg, Total) of the same compound?
Its value is 3.54 h.

What about the Tmax ([7]; oral 20 mg/kg, Total) of the same compound?
The Tmax was 3.5 h.

And the t1/2 ([7]; oral 20 mg/kg, Total)?
The t1/2 was 1.15 ± 0.13 h.

And the AUC0-t ([7]; oral 40 mg/kg, Female)?
The AUC0-t was 5220 ± 1113 ngh/mL.

And the “AUC0-∞” value ([7]; oral 40 mg/kg, Female)?
Its value is 5242 ± 1115 ngh/mL.

And the Cmax ([7]; oral 40 mg/kg, Female)?
The Cmax was 940 ± 117 ng/mL.

And the “MRT0-∞” value ([7]; oral 40 mg/kg, Female)?
The value was 4.05 h.

And the Tmax ([7]; oral 40 mg/kg, Female)?
Its Tmax is 2.0 h.

What about the t1/2 ([7]; oral 40 mg/kg, Female) of the same compound?
The t1/2 was 1.29 ± 0.21 h.

What about the AUC0-t ([7]; oral 40 mg/kg, Male) of the same compound?
Its AUC0-t is 2802 ± 967 ngh/mL.

What about the “AUC0-∞” value ([7]; oral 40 mg/kg, Male) of the same compound?
Its value is 2830 ± 983 ngh/mL.

And the Cmax ([7]; oral 40 mg/kg, Male)?
Its Cmax is 510 ± 259 ng/mL.

And the “MRT0-∞” value ([7]; oral 40 mg/kg, Male)?
Its value is 4.51 h.

What about the Tmax ([7]; oral 40 mg/kg, Male) of the same compound?
Its Tmax is 3.0 h.

What about the t1/2 ([7]; oral 40 mg/kg, Male) of the same compound?
The t1/2 was 1.3 ± 0.33 h.

And the AUC0-t ([7]; oral 40 mg/kg, Total)?
The AUC0-t was 4011 ± 1620 ngh/mL.

And the “AUC0-∞” value ([7]; oral 40 mg/kg, Total)?
Its value is 4036 ± 1620 ngh/mL.

And the Cmax ([7]; oral 40 mg/kg, Total)?
The Cmax was 725 ± 296 ng/mL.

What about the “MRT0-∞” value ([7]; oral 40 mg/kg, Total) of the same compound?
Its value is 4.28 h.

What about the Tmax ([7]; oral 40 mg/kg, Total) of the same compound?
Its Tmax is 2.5 h.

What about the t1/2 ([7]; oral 40 mg/kg, Total) of the same compound?
Its t1/2 is 1.3 ± 0.24 h.

For `CC(=O)N[C@H]1[C@H]([C@H](O)[C@H](O)CO)OC(C(=O)O)=C[C@@H]1N=C(N)N` [Zanamivir], which inhibition at 3 µM (SARS-CoV-2 [1]; Vero-E6, MOI 0.05, 48 h) is on record?
Its inhibition at 3 µM is -10.7%.
